Results taken from patent US20250243176A1, “(S)-1-(1-ACRYLOYLPIPERIDIN-3-YL)-2-FLUORO-5,6,7,8,9,10-HEXAHYDROCYCLO HEPTA[B]INDOLE-4-CARBOXAMIDE, AND RELATED CRYSTALLINE FORMS, COMPOSITIONS, AND METHODS THEREOF” (GB005, Inc., priority 2021, published 2025).
Values after ≈ are worked out from the molar mass of the structure shown.

Assay: Solubility testing in vehicle, HPLC (Form III)
Assay type: physicochemical
Details: for solubility at 24 h / solubility at 72 h / solubility at 4 h: thermodynamic from solid
Protocol: In each of the following studies (Examples 6-10), the starting material was Compound 1 (free form, not salt) Form III. The material was a light yellow solid, comprising non-hygroscopic irregular shaped crystal with aggregation. The same analytical methods as described in Example 1 were employed.
Vehicle solutions were prepared as follows:
Solubility was determined at room temperature for 24 and 72 hours and at 45° C. for 4 and 24 hours. About 30/100 mg Compound 1 was added to vehicle (2 mL) and the mixture stirred at room temperature for 24 or 72 hours. The suspensions were filtered or centrifuged, and the filtrate analyzed by HPLC.

C=CC(=O)N1CCC[C@@H](c2c(F)cc(C(N)=O)c3[nH]c4c(c23)CCCCC4)C1 [Compound 1, (S)-1-(1-acryloylpiperidin-3-yl)-2-fluoro-5,6,7,8,9,10-hexahydrocyclohepta[b]indole-4-carboxamide] showed a Solubility (Capryol 90, RT, 72 h, pH 6.5, loading 50 mg/mL) of over 50 mg/mL, a Solubility (Cremophor HS 15, 45° C., 24 h, pH 7.5, loading 50 mg/mL) of over 50 mg/mL and a Solubility (Gelucire 44/14, 45° C., 24 h, pH 5.8, loading 50 mg/mL) of over 50 mg/mL. The Solubility (Gelucire 48/16, 45° C., 24 h, loading 50 mg/mL) was over 50 mg/mL, the Solubility (Labrasol, RT, 72 h, pH 6.4, loading 50 mg/mL) was over 50 mg/mL and the Solubility (PEG400/TPGS(3/1), 45° C., 24 h, pH 6.1, loading 50 mg/mL) was over 50 mg/mL. The Solubility (PEG400, RT, 72 h, pH 6.7, loading 50 mg/mL) was over 50 mg/mL, the Solubility (PG, RT, 72 h, pH 5.2, loading 50 mg/mL) was over 50 mg/mL and the solubility at 24 h (aqueous with cosolvent or surfactant or cyclodextrin, 1% SLS, RT, 24 h, pH 7.1, loading 15 mg/mL) was 1200 µg/mL (≈ 3.13 mM). The solubility at 72 h (aqueous with cosolvent or surfactant or cyclodextrin, 1% SLS, RT, 72 h, pH 7.2, loading 15 mg/mL) was 1150 µg/mL (≈ 3 mM), the solubility at 24 h (aqueous with cosolvent or surfactant or cyclodextrin, 1% Tween 80, RT, 24 h, pH 6.3, loading 15 mg/mL) was 160 µg/mL (≈ 0.417 mM) and the solubility at 72 h (aqueous with cosolvent or surfactant or cyclodextrin, 1% Tween 80, RT, 72 h, pH 6.3, loading 15 mg/mL) was 170 µg/mL (≈ 0.443 mM). It also gave a solubility at 24 h (aqueous with cosolvent or surfactant or cyclodextrin, 1% polox188, RT, 24 h, pH 5.7, loading 15 mg/mL) of 0.2 µg/mL (≈ 0.000522 mM), a solubility at 72 h (aqueous with cosolvent or surfactant or cyclodextrin, 1% polox188, RT, 72 h, pH 5.7, loading 15 mg/mL) of 0.4 µg/mL (≈ 0.00104 mM) and a solubility at 24 h (aqueous with cosolvent or surfactant or cyclodextrin, 1% polox407, RT, 24 h, pH 6.7, loading 15 mg/mL) of 4 µg/mL (≈ 0.0104 mM). The solubility at 72 h (aqueous with cosolvent or surfactant or cyclodextrin, 1% polox407, RT, 72 h, pH 6.9, loading 15 mg/mL) was 1 µg/mL (≈ 0.00261 mM), the solubility at 24 h (aqueous with cosolvent or surfactant or cyclodextrin, 5% PVP K30, RT, 24 h, pH 4.0, loading 15 mg/mL) was 8 µg/mL (≈ 0.0209 mM) and the solubility at 72 h (aqueous with cosolvent or surfactant or cyclodextrin, 5% PVP K30, RT, 72 h, pH 4.0, loading 15 mg/mL) was 60 µg/mL (≈ 0.156 mM). The solubility at 24 h (aqueous with cosolvent or surfactant or cyclodextrin, 5% PVP VA64, RT, 24 h, pH 4.6, loading 15 mg/mL) was 36 µg/mL (≈ 0.0939 mM), the solubility at 72 h (aqueous with cosolvent or surfactant or cyclodextrin, 5% PVP VA64, RT, 72 h, pH 4.6, loading 15 mg/mL) was 42 µg/mL (≈ 0.11 mM) and the solubility at 24 h (aqueous with cosolvent or surfactant or cyclodextrin, 10% HP-B-CD, RT, 24 h, pH 6.7, loading 15 mg/mL) was 230 µg/mL (≈ 0.6 mM). It also gave a solubility at 72 h (aqueous with cosolvent or surfactant or cyclodextrin, 10% HP-B-CD, RT, 72 h, pH 6.7, loading 15 mg/mL) of 220 µg/mL (≈ 0.574 mM), a solubility at 24 h (aqueous with cosolvent or surfactant or cyclodextrin, 10% SBE-B-CD, RT, 24 h, pH 6.5, loading 15 mg/mL) of 1600 µg/mL (≈ 4.17 mM) and a solubility at 72 h (aqueous with cosolvent or surfactant or cyclodextrin, 10% SBE-B-CD, RT, 72 h, pH 6.5, loading 15 mg/mL) of 1610 µg/mL (≈ 4.2 mM). For the same compound, the solubility at 24 h (aqueous with cosolvent or surfactant or cyclodextrin, 10% TPGS, RT, 24 h, pH 5.3, loading 15 mg/mL) was 2030 µg/mL (≈ 5.29 mM), the solubility at 72 h (aqueous with cosolvent or surfactant or cyclodextrin, 10% TPGS, RT, 72 h, pH 5.3, loading 15 mg/mL) was 2040 µg/mL (≈ 5.32 mM) and the solubility at 4 h (aqueous with cosolvent or surfactant or cyclodextrin, Cremophor RH40, 45° C., loading 50 mg/mL) was 18.6 mg/mL (≈ 48.5 mM). For the same compound, the solubility at 4 h (aqueous with cosolvent or surfactant or cyclodextrin, Gelucire 44/14, 45° C., pH 5.7, loading 50 mg/mL) was 48.1 mg/mL (≈ 125 mM), the solubility at 24 h (aqueous with cosolvent or surfactant or cyclodextrin, Gelucire 44/14, 45° C., 24 h, pH 5.8, loading 50 mg/mL) was over 50000 µg/mL and the solubility at 4 h (aqueous with cosolvent or surfactant or cyclodextrin, Gelucire 48/16, 45° C., loading 50 mg/mL) was 44.3 mg/mL (≈ 116 mM). For the same compound, the solubility at 24 h (aqueous with cosolvent or surfactant or cyclodextrin, Gelucire 48/16, 45° C., 24 h, loading 50 mg/mL) was over 50000 µg/mL, the solubility at 24 h (aqueous with cosolvent or surfactant or cyclodextrin, Labrasol, RT, 24 h, pH 6.9, loading 50 mg/mL) was over 50000 µg/mL and the solubility at 72 h (aqueous with cosolvent or surfactant or cyclodextrin, Labrasol, RT, 72 h, pH 6.4, loading 50 mg/mL) was over 50000 µg/mL. It also gave a solubility at 24 h (oil or lipid, Capryol 90, RT, 24 h, pH 6.8, loading 50 mg/mL) of 47900 µg/mL (≈ 125 mM), a solubility at 72 h (oil or lipid, Capryol 90, RT, 72 h, pH 6.5, loading 50 mg/mL) of over 50000 µg/mL and a solubility at 24 h (oil or lipid, Miglyol 810, RT, 24 h, pH 5.8, loading 15 mg/mL) of 2160 µg/mL (≈ 5.63 mM).
